Measurements: PMC9481151, “Discovery of new symmetrical and asymmetrical nitrile-containing 1,4-dihydropyridine derivatives as dual kinases and P-glycoprotein inhibitors: synthesis, in vitro assays, and in silico studies” (Journal of Enzyme Inhibition and Medicinal Chemistry, 2022)
In brackets after ≈: the same amount, converted by molar mass. Read-outs that look alike come from different tables or passages of the source.

Experiments:
[1] = test system: A. flavus; assay: MIC, two-fold microbroth dilution method; conditions: Aspergillus flavus, read-out: MIC (µg/mL) A. flavus
[2] = test system: C. albicans; assay: MIC, two-fold microbroth dilution method; conditions: Candida albicans, read-out: MIC (µg/mL) C. albicans
[3] = test system: Aspergillus flavus; assay: Agar well diffusion method
[4] = test system: Candida albicans; assay: Agar well diffusion method
[5] = test system: fungi (Candida albicans and Aspergillus flavus); assay: Agar well diffusion method, summary; conditions: range over strains
[6] = test system: B. subtilis; assay: MIC, two-fold microbroth dilution method; conditions: Bacillus subtilis
[7] = test system: G positive and G negative bacteria; assay: Agar well diffusion method, summary; format: cell-based; conditions: reference drug, range over four strains
Excerpt: As a control, DMSO solvent was employed.

[8] = test system: E. coli; assay: MIC, two-fold microbroth dilution method; conditions: Escherichia coli, read-out: MIC (µg/mL) E. coli
[9] = test system: Escherichia coli; assay: Agar well diffusion method
[10] = test system: Pseudomonas aeruginosa; assay: Agar well diffusion method
[11] = test system: Bacillus subtilis; assay: Agar well diffusion method
[12] = test system: P. aeruginosa; assay: MIC, two-fold microbroth dilution method; conditions: Pseudomonas aeruginosa, read-out: MIC (µg/mL) P. aeruginosa
[13] = test system: Staphylococcus aureus; assay: Agar well diffusion method
[14] = test system: S. aureus; assay: MIC, two-fold microbroth dilution method; conditions: Staphylococcus aureus
[15] = test system: L-type calcium channels; conditions: cited from earlier work

Which results are given for `Clc1ccccc1C(c1ccccc1)(c1ccccc1)n1ccnc1` [Clotrimazole, reference compound]?
MIC [1]: 1 µg/mL (≈ 2.9 µM); MIC [2]: 2 µg/mL (≈ 5.8 µM); zone of inhibition at 1000 µg/mL ([3]; Aspergillus flavus, 24 h, read-out: Diameter of inhibition zone, A. flavus): 25 mm; % activity index, A. flavus ([3]; relative to clotrimazole): 100%; zone of inhibition at 1000 µg/mL ([4]; Candida albicans, 24 h, read-out: Diameter of inhibition zone, C. albicans): 27 mm; % activity index, C. albicans ([4]; relative to clotrimazole): 100%; DIZs against fungi [5]: 25–27 mm

With `O=C(O)c1cn(C2CC2)c2cc(N3CCNCC3)c(F)cc2c1=O` [Ciprofloxacin, reference compound] as the compound, how does the MIC ([6]; 24 h, read-out: MIC, B. subtilis) read?
Its MIC is 2 µg/mL (≈ 6.04 µM).

And the MIC ([6]; read-out: MIC (µg/mL) B. subtilis)?
The MIC was 2 µg/mL (≈ 6.04 µM).

And the DIZs against bacteria [7]?
The DIZs against bacteria was 23–26 mm.

What about the MIC [8] of the same compound?
The MIC was 0.5 µg/mL (≈ 1.51 µM).

What about the zone of inhibition at 1000 µg/mL ([9]; Escherichia coli, 24 h, read-out: Diameter of inhibition zone, E. coli) of the same compound?
The zone of inhibition at 1000 µg/mL was 26 mm.

And the “% activity index, E. coli” value ([9]; relative to ciprofloxacin)?
Its value is 100%.

What about the zone of inhibition at 1000 µg/mL ([10]; Pseudomonas aeruginosa, 24 h, read-out: Diameter of inhibition zone, P. aeruginosa) of the same compound?
Its zone of inhibition at 1000 µg/mL is 23 mm.

And the “% activity index, P. aeruginosa” value ([10]; relative to ciprofloxacin)?
The value was 100%.

And the zone of inhibition at 1000 µg/mL ([11]; Bacillus subtilis, 24 h, read-out: Diameter of inhibition zone, B. subtilis)?
Its zone of inhibition at 1000 µg/mL is 23 mm.

And the “% activity index, B. subtilis” value ([11]; relative to ciprofloxacin)?
Its value is 100%.

And the MIC [12]?
The MIC was 1 µg/mL (≈ 3.02 µM).

And the zone of inhibition at 1000 µg/mL ([13]; Staphylococcus aureus, 24 h, read-out: Diameter of inhibition zone, S. aureus)?
The zone of inhibition at 1000 µg/mL was 24 mm.

What about the “% activity index, S. aureus” value ([13]; relative to ciprofloxacin) of the same compound?
The value was 100%.

And the MIC ([14]; 24 h, read-out: MIC, S. aureus)?
Its MIC is 1 µg/mL (≈ 3.02 µM).

What about the MIC ([14]; read-out: MIC (µg/mL) S. aureus) of the same compound?
The MIC was 1 µg/mL (≈ 3.02 µM).

For `COC(=O)C1=C(C)NC(C)=C(C(=O)OCCCN2CCC(c3ccccc3)(c3ccccc3)CC2)[C@@H]1c1cccc([N+](=O)[O-])c1` [Dexniguldipine, dexniguldipine], which “times less potent than (+)-niguldipine in its interaction with L-type calcium channels” value [15] is on record?
The value was 40.
